Results published in ChEMBL document CHEMBL1201862, “PubChem BioAssay data set” (2004).
Active and inactive are the calls of the source.

Tests used:
[1] = inhibitors of intracellular T. cruzi replication, confirmation, NIH3T3 host cells, beta-gal luminescence (AID 2044); format: functional, cell-based;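 also: intracellular parasites grown in NIH/3T3 mouse fibroblasts as host cells; luminescent beta-galactosidase reporter signal from transgenic T. cruzi replicating inside host cells; inhibitors lower the luminescence signal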
[2] = cytotoxicity toward NIH3T3 fibroblasts, dose response, counter-screen, cell-based, ATP luminescence, mouse fibroblasts (AID 2010); format: functional;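 also: cells exposed to compound for about 90 hours before reading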
[3] = target: Heat shock protein HSP 90-alpha (Homo sapiens, UniProt P07900); format: functional, organism-based
[4] = target: T1, Caspase-6 (Homo sapiens, UniProt P55212); experiment: human caspase-6 inhibitors, dose response, biochemical, VEID-R110 fluorescence, cherry-pick (AID 720632)
T1 sequence (P55212 whole entry): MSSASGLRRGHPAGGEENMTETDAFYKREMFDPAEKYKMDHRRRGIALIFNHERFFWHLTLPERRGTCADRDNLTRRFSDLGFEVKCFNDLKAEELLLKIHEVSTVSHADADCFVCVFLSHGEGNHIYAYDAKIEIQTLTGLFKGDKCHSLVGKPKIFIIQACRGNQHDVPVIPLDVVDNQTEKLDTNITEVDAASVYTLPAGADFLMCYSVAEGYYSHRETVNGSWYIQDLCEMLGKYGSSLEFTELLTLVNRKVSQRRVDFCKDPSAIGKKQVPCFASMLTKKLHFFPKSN

[5] = THP-1 cell cytotoxicity, dose response, cytotoxicity control for Vif-APOBEC3G degradation inhibitor project, THP-1 cells (AID 1117359); format: functional; details: Human immunodeficiency virus 1, THP-1
[6] = target: T2, fMet-Leu-Phe receptor (Homo sapiens, UniProt P21462); experiment: FPR ligands, dose response (AID 519); format: functional
T2 sequence (P21462 whole entry): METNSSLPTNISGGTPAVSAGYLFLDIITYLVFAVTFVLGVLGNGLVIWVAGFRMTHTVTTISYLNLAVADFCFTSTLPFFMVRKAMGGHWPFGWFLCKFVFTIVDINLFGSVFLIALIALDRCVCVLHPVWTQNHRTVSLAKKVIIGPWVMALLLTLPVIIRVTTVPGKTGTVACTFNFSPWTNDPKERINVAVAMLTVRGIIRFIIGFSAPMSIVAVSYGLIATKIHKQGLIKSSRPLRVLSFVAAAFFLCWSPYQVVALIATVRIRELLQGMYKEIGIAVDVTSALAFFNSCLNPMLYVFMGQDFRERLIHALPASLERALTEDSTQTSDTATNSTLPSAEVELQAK

[7] = target: T3, Oxysterols receptor LXR-beta (Homo sapiens, UniProt P55055); format: functional, cell-based;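 also: agonist activity at LXR measured by a cell-based luminescence readout across a dose range, run as a counterscreen for daf-12 agonists; HEK293 cells with Gal4-LXR fusion and GAL4-driven luciferase reporter; potency for activation of Gal4-LXR reporter so compounds are agonists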
T3 sequence (P55055 whole entry): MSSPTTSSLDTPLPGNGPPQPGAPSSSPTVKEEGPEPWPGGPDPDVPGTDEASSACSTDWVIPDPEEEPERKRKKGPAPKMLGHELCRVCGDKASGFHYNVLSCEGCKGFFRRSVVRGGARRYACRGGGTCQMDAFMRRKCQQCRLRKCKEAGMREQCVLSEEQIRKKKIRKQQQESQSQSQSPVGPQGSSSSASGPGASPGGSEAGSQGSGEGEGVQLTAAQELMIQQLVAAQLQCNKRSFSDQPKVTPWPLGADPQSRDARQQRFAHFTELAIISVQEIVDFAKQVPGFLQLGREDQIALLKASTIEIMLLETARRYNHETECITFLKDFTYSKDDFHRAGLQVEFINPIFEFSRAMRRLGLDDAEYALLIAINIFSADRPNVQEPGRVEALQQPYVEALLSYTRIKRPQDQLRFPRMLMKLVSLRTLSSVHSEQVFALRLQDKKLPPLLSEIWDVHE

[8] = tested on: HeLa; experiment: HeLa cell cytotoxicity, dose response, cytotoxicity control, ATP luminescence, cherry-pick samples (AID 687004); format: functional, cell-based; details: Homo sapiens
[9] = T. cruzi growth inhibition in host cells, dose response, cell-based, plate reader, dry powder, set 2 (AID 652275); format: functional
[10] = NIH-3T3 fibroblast cytotoxicity, dose response, cytotoxicity control, cell-based, fluorescence, Alamar Blue, secondary assay (AID 2327); format: functional;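 also: NIH-3T3 mouse fibroblasts cultured with fluconazole at 8 µg/mL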
[11] = C. albicans growth with fluconazole, confirmation, fluorescence, retest (AID 2467); format: functional, cell-based
[12] = target: Induced myeloid leukemia cell differentiation protein Mcl-1 (Homo sapiens, UniProt Q07820); format: functional
Induced myeloid leukemia cell differentiation protein Mcl-1, sequence (Q07820 whole entry): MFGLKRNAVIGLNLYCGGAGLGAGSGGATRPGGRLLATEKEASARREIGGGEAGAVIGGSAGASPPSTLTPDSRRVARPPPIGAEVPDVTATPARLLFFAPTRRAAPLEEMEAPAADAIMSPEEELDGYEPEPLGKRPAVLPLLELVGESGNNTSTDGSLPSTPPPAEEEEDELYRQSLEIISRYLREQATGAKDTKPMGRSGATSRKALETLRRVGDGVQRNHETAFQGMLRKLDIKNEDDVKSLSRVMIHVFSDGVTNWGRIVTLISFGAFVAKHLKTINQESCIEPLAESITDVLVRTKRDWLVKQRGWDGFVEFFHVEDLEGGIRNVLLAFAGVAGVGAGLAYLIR

[13] = tested on: INS1; experiment: beta cell apoptosis inhibitors, cytokine rescue, dose response, luminescence, retest (AID 449756); format: functional, cell-based; details: Rattus norvegicus;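 also: cell death triggered by IL-1 beta plus TNF-alpha plus IFN-gamma mixture; protective hits raise ATP signal compared with cytokine alone wells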
[14] = target: Albumin (Bos taurus, UniProt P02769); experiment: Counterscreen for inhibitors of T-cell receptor (TCR)-CD3 interaction: Fluorescence-based biochemical high throughput dose response assay to identify inhibitors of T-cell receptor (TCR)-CD3 interaction using a TAMRA-labeled BSA probe.; format: functional
Albumin, sequence (P02769 whole entry): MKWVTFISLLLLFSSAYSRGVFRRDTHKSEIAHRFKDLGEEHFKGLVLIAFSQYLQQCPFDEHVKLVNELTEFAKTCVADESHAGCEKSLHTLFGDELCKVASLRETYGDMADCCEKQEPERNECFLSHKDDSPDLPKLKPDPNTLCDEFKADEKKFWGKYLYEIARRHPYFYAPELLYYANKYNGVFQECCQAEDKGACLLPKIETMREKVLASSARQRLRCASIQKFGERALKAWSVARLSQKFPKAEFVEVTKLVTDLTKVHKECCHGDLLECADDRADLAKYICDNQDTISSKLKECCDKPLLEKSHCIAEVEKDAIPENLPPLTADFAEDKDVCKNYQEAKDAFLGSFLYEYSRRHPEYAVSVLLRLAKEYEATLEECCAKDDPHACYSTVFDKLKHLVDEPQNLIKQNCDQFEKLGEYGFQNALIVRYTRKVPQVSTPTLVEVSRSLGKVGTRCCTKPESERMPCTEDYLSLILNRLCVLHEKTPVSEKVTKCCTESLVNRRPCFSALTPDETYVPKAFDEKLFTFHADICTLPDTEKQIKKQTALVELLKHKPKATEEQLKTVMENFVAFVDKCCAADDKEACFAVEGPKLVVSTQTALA

With `O=[N+]([O-])c1cc(CN2CCN(c3cccc(C(F)(F)F)c3)CC2)c2cccnc2c1O` the EC50 [1] was 0.493 µM (active), the EC50 [2] was 4.99 µM (active) and the AC50 [3] was 3.53 µM (active). For the same compound, the AC50 [4] was 33.8 µM (active) and the CC50 [5] was 2.18 µM (active).

For `COc1ccc(C)cc1NC(=O)C1CCCCC1C(=O)O` (configuration not stated), the Ki [6] was > 66.7 µM (inactive).

In the case of `Cc1cc2ncc(-c3ccccc3)nc2cc1C` [AG1295], the EC50 [7] is reported as > 67.5 µM (inactive).

With `CN1C(=O)c2cc(NC(=O)NC3CCCC3)ccc2OC[C@H]2O[C@@H](CC(=O)NC3CCC3)CC[C@@H]21` the AC50 [8] was 25.9 µM (active).

In the case of `C[C@H]1CN([C@@H](C)CO)C(=O)c2cccc(NC(=O)c3ccncc3)c2O[C@@H]1CN(C)Cc1cc(Cl)ccc1Cl`, the AC50 [9] is reported as 0.0573 µM (active).

In the case of `Cc1cc(/C=N/n2c(COc3ccccc3C)nc3ccccc3c2=O)c(O)c([N+](=O)[O-])c1`, the EC50 [10] is reported as > 150 µM (inactive), the EC50 [11] is reported as 1.37 µM (active) and the EC50 [1] is reported as 1 µM (active). For the same compound, the EC50 [2] was 6.51 µM (active), the IC50 [12] was 4.58 µM (active) and the AC50 [13] was 2.99 µM (active). The IC50 [14] was > 94.1 µM (inactive).

With `OC[C@H]1[C@H](c2ccc(Br)cc2)[C@@H]2CN(Cc3ccccn3)CCCCN12` the AC50 [9] was 3.71 µM (active).
